Source: paper PMC5218480 (PLoS ONE, 2017)

System: MV-4-11 cells
Assay: Gene expression microarray analysis (Affymetrix PrimeView) and GSEA
Assay type: cell-based, human
Design: RFU PODN (11730768_x_at) / Fold change /veh PODN (11730768_x_at) / RFU LINC00158 (11744669_a_at) / Fold change /veh LINC00158 (11744669_a_at) / RFU DUSP10 (11751237_a_at) / Fold change /veh DUSP10 (11751237_a_at) / RFU ID3 (11757404_x_at) / Fold change /veh ID3 (11757404_x_at) / RFU PLEKHG5 (11737974_s_at) / Fold change /veh PLEKHG5 (11737974_s_at) / RFU LRRC4B (11730491_at) / Fold change /veh LRRC4B (11730491_at) / RFU GIMAP4 (11747438_a_at) / Fold change /veh GIMAP4 (11747438_a_at) / RFU KRT8 (11758183_x_at) / Fold change /veh KRT8 (11758183_x_at) / RFU CNN1 (11734310_a_at) / Fold change /veh CNN1 (11734310_a_at) / RFU VPS37D (11726825_at) / Fold change /veh VPS37D (11726825_at) / RFU C10orf10 (11716522_x_at) / Fold change /veh C10orf10 (11716522_x_at) / RFU KIR2DL2 /// KIR2DL4 /// KIR2DL5A /// KIR2DL5B /// KIR2DS1 /// KIR2DS2 /// KIR2DS3 /// KIR2DS4 /// KIR3DL3 /// KIR3DL3 /// KIR3DS1 (11738374_at) / Fold change /veh KIR2DL2 /// KIR2DL4 /// KIR2DL5A /// KIR2DL5B /// KIR2DS1 /// KIR2DS2 /// KIR2DS3 /// KIR2DS4 /// KIR3DL3 /// KIR3DL3 /// KIR3DS1 (11738374_at) / RFU C1QL1 (11718748_at) / Fold change /veh C1QL1 (11718748_at) / RFU TMPRSS4 (11747572_a_at) / Fold change /veh TMPRSS4 (11747572_a_at) / RFU HAMP (11756126_x_at) / Fold change /veh HAMP (11756126_x_at) / RFU RNFT2 (11725882_a_at) / Fold change /veh RNFT2 (11725882_a_at) / RFU NR4A2 (11747474_a_at) / Fold change /veh NR4A2 (11747474_a_at) / RFU ABCC12 (11746883_a_at) / Fold change /veh ABCC12 (11746883_a_at) / RFU TMEM136 (11760407_x_at) / Fold change /veh TMEM136 (11760407_x_at) / RFU CLDN22 /// WWC2 (11732394_at) / Fold change /veh CLDN22 /// WWC2 (11732394_at) / RFU HLA-DPB1 (11760878_x_at) / Fold change /veh HLA-DPB1 (11760878_x_at) / RFU SPINT1 (11716480_a_at) / Fold change /veh SPINT1 (11716480_a_at) / RFU GAP43 (11754022_s_at) / Fold change /veh GAP43 (11754022_s_at) / RFU A4GNT (11735810_at) / Fold change /veh A4GNT (11735810_at) / RFU PRB3 (11715151_x_at) / Fold change /veh PRB3 (11715151_x_at) / RFU TUBB4B (11761932_at) / Fold change /veh TUBB4B (11761932_at) / RFU CAPN14 (11732068_a_at) / Fold change /veh CAPN14 (11732068_a_at) / RFU TMCC2 (11721928_a_at) / Fold change /veh TMCC2 (11721928_a_at) / RFU IRGQ (11745062_a_at) / Fold change /veh IRGQ (11745062_a_at) / RFU FAM174B (11720279_a_at) / Fold change /veh FAM174B (11720279_a_at) / RFU TMPRSS4 (11748680_a_at) / Fold change /veh TMPRSS4 (11748680_a_at) / RFU FAM212B (11763350_a_at) / Fold change /veh FAM212B (11763350_a_at) / RFU PLEKHG5 (11743358_a_at) / Fold change /veh PLEKHG5 (11743358_a_at) / RFU ZSCAN30 (11745921_a_at) / Fold change /veh ZSCAN30 (11745921_a_at) / RFU CMKLR1 (11741424_a_at) / Fold change /veh CMKLR1 (11741424_a_at) / RFU LOC101060620 /// MAPK8IP1 (11723275_at) / Fold change /veh LOC101060620 /// MAPK8IP1 (11723275_at) / RFU SPTSSB (11747773_x_at) / Fold change /veh SPTSSB (11747773_x_at) / RFU PRSS12 (11739890_at) / Fold change /veh PRSS12 (11739890_at) / RFU BIN1 (11741810_x_at) / Fold change /veh BIN1 (11741810_x_at) / RFU WNT11 (11732464_a_at) / Fold change /veh WNT11 (11732464_a_at) / RFU C10orf10 (11716521_a_at) / Fold change /veh C10orf10 (11716521_a_at) / RFU C5orf56 (11738089_at) / Fold change /veh C5orf56 (11738089_at) / RFU CYB561 (11721691_x_at) / Fold change /veh CYB561 (11721691_x_at) / RFU ANKRD19P (11752326_a_at) / Fold change /veh ANKRD19P (11752326_a_at) / RFU OR2T12 /// OR2T33 /// OR2T8 (11738714_s_at) / Fold change /veh OR2T12 /// OR2T33 /// OR2T8 (11738714_s_at) / RFU VCAN (11748164_a_at) / Fold change /veh VCAN (11748164_a_at) / RFU JSRP1 (11732532_at) / Fold change /veh JSRP1 (11732532_at) / RFU KRTAP10-11 (11738290_x_at) / Fold change /veh KRTAP10-11 (11738290_x_at) / RFU MYO3A (11730013_a_at) / Fold change /veh MYO3A (11730013_a_at) / RFU EBF3 (11725865_a_at) / Fold change /veh EBF3 (11725865_a_at) / RFU CAMK2N1 (11719241_x_at) / Fold change /veh CAMK2N1 (11719241_x_at) / RFU C5orf56 (11738088_a_at) / Fold change /veh C5orf56 (11738088_a_at) / RFU OLFML3 (11715873_a_at) / Fold change /veh OLFML3 (11715873_a_at) / RFU LOC100653217 /// NTM (11731650_a_at) / Fold change /veh LOC100653217 /// NTM (11731650_a_at) / RFU MAPK11 (11762145_a_at) / Fold change /veh MAPK11 (11762145_a_at) / RFU FIZ1 (11724087_x_at) / Fold change /veh FIZ1 (11724087_x_at) / RFU OASL (11726364_x_at) / Fold change /veh OASL (11726364_x_at) / RFU SOX15 (11748057_x_at) / Fold change /veh SOX15 (11748057_x_at) / RFU CD79A (11719716_a_at) / Fold change /veh CD79A (11719716_a_at) / RFU HIST1H1D (11736915_at) / Fold change /veh HIST1H1D (11736915_at) / RFU CASKIN2 (11723855_a_at) / Fold change /veh CASKIN2 (11723855_a_at) / RFU LOC730098 (11760151_x_at) / Fold change /veh LOC730098 (11760151_x_at) / RFU OR4N2 (11742367_at) / Fold change /veh OR4N2 (11742367_at) / RFU PRRT2 (11749266_a_at) / Fold change /veh PRRT2 (11749266_a_at) / RFU SNX32 (11753110_a_at) / Fold change /veh SNX32 (11753110_a_at) / RFU CDHR5 (11726645_a_at) / Fold change /veh CDHR5 (11726645_a_at) / RFU RCAN1 (11760418_a_at) / Fold change /veh RCAN1 (11760418_a_at) / RFU FAM167A (11723789_a_at) / Fold change /veh FAM167A (11723789_a_at) / RFU FAM26E (11764081_at) / Fold change /veh FAM26E (11764081_at) / RFU ISYNA1 (11749810_s_at) / Fold change /veh ISYNA1 (11749810_s_at) / RFU ACY1 (11761880_at) / Fold change /veh ACY1 (11761880_at) / RFU 11764098_at / Fold change /veh 11764098_at / RFU SAMD14 (11745864_x_at) / Fold change /veh SAMD14 (11745864_x_at) / RFU NPB (11741838_a_at) / Fold change /veh NPB (11741838_a_at) / RFU TMPRSS6 (11731388_a_at) / Fold change /veh TMPRSS6 (11731388_a_at) / RFU KRTAP10-2 (11738614_at) / Fold change /veh KRTAP10-2 (11738614_at) / RFU ARHGAP8 /// PRR5-ARHGAP8 (11727945_x_at) / Fold change /veh ARHGAP8 /// PRR5-ARHGAP8 (11727945_x_at) / RFU KRTAP5-7 /// NADSYN1 (11734609_at) / Fold change /veh KRTAP5-7 /// NADSYN1 (11734609_at) / RFU RASL12 (11751679_a_at) / Fold change /veh RASL12 (11751679_a_at) / RFU CDKN2B (11736163_a_at) / Fold change /veh CDKN2B (11736163_a_at) / RFU PRF1 (11729649_at) / Fold change /veh PRF1 (11729649_at) / RFU, ZNF638 /// ZNF638-IT1 / Fold change vs veh, ZNF638 /// ZNF638-IT1 / RFU, PANK3 / Fold change vs veh, PANK3 / RFU, SH3YL1 / Fold change vs veh, SH3YL1 / RFU, ZEB2 / Fold change vs veh, ZEB2 / RFU, NRIP1 / Fold change vs veh, NRIP1 / RFU, PTTG1IP / Fold change vs veh, PTTG1IP / RFU, CAPN2 / Fold change vs veh, CAPN2 / RFU, MED14 / Fold change vs veh, MED14 / RFU, SNORA58 / Fold change vs veh, SNORA58 / RFU, C1orf63 / Fold change vs veh, C1orf63 / RFU, LRRFIP1 / Fold change vs veh, LRRFIP1 / RFU, NDUFAF7 / Fold change vs veh, NDUFAF7 / RFU, SLC12A2 / Fold change vs veh, SLC12A2 / RFU, IBTK / Fold change vs veh, IBTK / RFU, ESF1 / Fold change vs veh, ESF1 / Fold change vs veh, TMEM50B / RFU, TAOK1 / Fold change vs veh, TAOK1 / RFU, ACBD3 / Fold change vs veh, ACBD3 / RFU, TMA16 / Fold change vs veh, TMA16 / RFU, RWDD3 / Fold change vs veh, RWDD3 / RFU, BCAT1 / Fold change vs veh, BCAT1 / RFU, EDEM3 / Fold change vs veh, EDEM3 / RFU, TMEM33 / Fold change vs veh, TMEM33 / RFU, WDR75 / Fold change vs veh, WDR75 / RFU, AHCTF1 / Fold change vs veh, AHCTF1 / RFU, TFRC / Fold change vs veh, TFRC / RFU, ZDHHC17 / Fold change vs veh, ZDHHC17 / RFU, NOM1 / Fold change vs veh, NOM1 / RFU, ARL8B / Fold change vs veh, ARL8B / RFU, ZBTB11 / Fold change vs veh, ZBTB11 / RFU, TAMM41 / Fold change vs veh, TAMM41 / RFU, KIAA1704 /// LOC100996395 / Fold change vs veh, KIAA1704 /// LOC100996395 / RFU, ING1 / Fold change vs veh, ING1 / RFU, TRMT61B / Fold change vs veh, TRMT61B / RFU, FUBP3 / Fold change vs veh, FUBP3 / RFU, TP53 / Fold change vs veh, TP53 / RFU, TNKS2 / Fold change vs veh, TNKS2 / RFU, ZFP14 / Fold change vs veh, ZFP14 / RFU, ACTR2 / Fold change vs veh, ACTR2 / RFU, PPP3R1 / Fold change vs veh, PPP3R1 / RFU, PIK3R1 / Fold change vs veh, PIK3R1 / RFU, HNRNPA1 / Fold change vs veh, HNRNPA1 / RFU, RNF170 / Fold change vs veh, RNF170 / RFU, ZNF28 / Fold change vs veh, ZNF28 / RFU, RNGTT / Fold change vs veh, RNGTT / RFU, OGT / Fold change vs veh, OGT / RFU, BRD1 / Fold change vs veh, BRD1 / RFU, MARS / Fold change vs veh, MARS / RFU, ZNF655 / Fold change vs veh, ZNF655 / RFU, FAHD1 / Fold change vs veh, FAHD1 / RFU, BDP1 / Fold change vs veh, BDP1 / RFU, LRRCC1 / Fold change vs veh, LRRCC1 / RFU, ARID1A / Fold change vs veh, ARID1A / RFU, ZNF146 / Fold change vs veh, ZNF146 / RFU, ZNF330 / Fold change vs veh, ZNF330 / RFU, GPN3 / Fold change vs veh, GPN3 / RFU, C9orf123 / Fold change vs veh, C9orf123 / RFU, N4BP2L2 / Fold change vs veh, N4BP2L2 / RFU, ARFIP1 / Fold change vs veh, ARFIP1 / RFU, FAM179B / Fold change vs veh, FAM179B / RFU, BCL10 / Fold change vs veh, BCL10 / RFU, UHRF1BP1L / Fold change vs veh, UHRF1BP1L / RFU, BET1 / Fold change vs veh, BET1 / RFU, CNOT2 / Fold change vs veh, CNOT2 / RFU, ZNF268 / Fold change vs veh, ZNF268 / Fold change vs veh, ZNF507 / RFU, DGCR2 / Fold change vs veh, DGCR2 / RFU, WDSUB1 / Fold change vs veh, WDSUB1 / Fold change vs veh, HSP90B1 /// MIR3652 / RFU, ADSS / Fold change vs veh, ADSS / RFU, GK / Fold change vs veh, GK / RFU, ZNF148 / Fold change vs veh, ZNF148 / RFU, TAF9 / Fold change vs veh, TAF9 / RFU, SLC1A5 / Fold change vs veh, SLC1A5 / RFU, SLMO2 / Fold change vs veh, SLMO2 / RFU, ABCC4 / Fold change vs veh, ABCC4 / RFU, LOC101060439 /// RAP1B / Fold change vs veh, LOC101060439 /// RAP1B / RFU, RFX7 / Fold change vs veh, RFX7 / RFU, GTPBP10 / Fold change vs veh, GTPBP10 / RFU, CNEP1R1 / Fold change vs veh, CNEP1R1 / RFU, BIVM-ERCC5 /// ERCC5 / Fold change vs veh, BIVM-ERCC5 /// ERCC5 / RFU, ILF3 / Fold change vs veh, ILF3 / RFU 11762660_at / Fold change /veh 11762660_at / RFU VCAN (11757783_s_at) / Fold change /veh VCAN (11757783_s_at) / RFU DDX43 (11728927_at) / Fold change /veh DDX43 (11728927_at) / RFU KRT8 (11758188_x_at) / Fold change /veh KRT8 (11758188_x_at) / RFU NKD1 (11759106_at) / Fold change /veh NKD1 (11759106_at) / RFU SRD5A1 (11742802_a_at) / Fold change /veh SRD5A1 (11742802_a_at) / RFU TPSAB1 /// TPSB2 (11721975_s_at) / Fold change /veh TPSAB1 /// TPSB2 (11721975_s_at) / RFU GSTM3 (11746129_a_at) / Fold change /veh GSTM3 (11746129_a_at) / RFU IL23R (11737362_x_at) / Fold change /veh IL23R (11737362_x_at) / RFU TMEM51 (11727254_a_at) / Fold change /veh TMEM51 (11727254_a_at) / RFU PIWIL2 (11732686_x_at) / Fold change /veh PIWIL2 (11732686_x_at) / RFU ORM1 (11744905_x_at) / Fold change /veh ORM1 (11744905_x_at) / RFU CCDC152 (11743942_at) / Fold change /veh CCDC152 (11743942_at) / RFU ECM1 (11717891_a_at) / Fold change /veh ECM1 (11717891_a_at) / RFU IL23R (11748794_a_at) / Fold change /veh IL23R (11748794_a_at) / RFU TNFAIP8L3 (11732012_x_at) / Fold change /veh TNFAIP8L3 (11732012_x_at) / RFU MBOAT4 (11741988_at) / Fold change /veh MBOAT4 (11741988_at) / RFU 11764193_at / Fold change /veh 11764193_at / RFU TMEM53 (11763286_at) / Fold change /veh TMEM53 (11763286_at) / RFU MAGEB2 (11727129_at) / Fold change /veh MAGEB2 (11727129_at) / RFU TMEM200A (11744735_a_at) / Fold change /veh TMEM200A (11744735_a_at) / RFU CCDC152 (11751479_a_at) / Fold change /veh CCDC152 (11751479_a_at) / RFU FAM211A (11726209_a_at) / Fold change /veh FAM211A (11726209_a_at) / RFU RGS16 (11746705_a_at) / Fold change /veh RGS16 (11746705_a_at) / RFU VCAN (11755009_s_at) / Fold change /veh VCAN (11755009_s_at) / RFU RHOB (11743442_s_at) / Fold change /veh RHOB (11743442_s_at) / RFU RGS16 (11720943_a_at) / Fold change /veh RGS16 (11720943_a_at) / RFU RGS16 (11720944_at) / Fold change /veh RGS16 (11720944_at) / RFU, VPS4B / Fold change vs veh, VPS4B / RFU, CREB1 / Fold change vs veh, CREB1 / RFU, DNAJC13 / Fold change vs veh, DNAJC13 / RFU, GNAQ / Fold change vs veh, GNAQ / RFU, CDK5R1 / Fold change vs veh, CDK5R1 / RFU, ZRANB3 / Fold change vs veh, ZRANB3 / RFU, CUL4A / Fold change vs veh, CUL4A / RFU, CCNY / Fold change vs veh, CCNY / RFU, UFL1 / Fold change vs veh, UFL1 / RFU, COG3 / Fold change vs veh, COG3 / RFU, DIAPH2 / Fold change vs veh, DIAPH2 / RFU, SKA2 / Fold change vs veh, SKA2 / RFU, AFF3 / Fold change vs veh, AFF3 / RFU, LMF1 / Fold change vs veh, LMF1 / RFU, IPO11 / Fold change vs veh, IPO11 / RFU, DFFB / Fold change vs veh, DFFB / RFU, FOXP1 / Fold change vs veh, FOXP1 / RFU, CARD8 / Fold change vs veh, CARD8 / RFU, STRN3 / Fold change vs veh, STRN3 / RFU, ADK / Fold change vs veh, ADK / RFU, RASSF2 / Fold change vs veh, RASSF2 / RFU, WIPF1 / Fold change vs veh, WIPF1 / RFU, LARP1B / Fold change vs veh, LARP1B / RFU, RASA1 / Fold change vs veh, RASA1 / RFU, RB1 / Fold change vs veh, RB1 / RFU, PPFIA1 / Fold change vs veh, PPFIA1 / RFU, MAT2A / Fold change vs veh, MAT2A / RFU, CCT5 / Fold change vs veh, CCT5 / RFU, WDR92 / Fold change vs veh, WDR92 / RFU, CUX1 / Fold change vs veh, CUX1 / RFU, TTC7A / Fold change vs veh, TTC7A / RFU, TMEM135 / Fold change vs veh, TMEM135 / RFU, DEPTOR / Fold change vs veh, DEPTOR / RFU, CPM / Fold change vs veh, CPM / RFU, DNAJB6 / Fold change vs veh, DNAJB6 / RFU, CACNA2D3 / Fold change vs veh, CACNA2D3 / RFU, DTX4 / Fold change vs veh, DTX4 / RFU, TFCP2 / Fold change vs veh, TFCP2 / RFU, GMCL1 /// GMCL1P1 / Fold change vs veh, GMCL1 /// GMCL1P1 / RFU, AEBP2 / Fold change vs veh, AEBP2 / RFU, SNHG1 /// SNORD22 /// SNORD25 /// SNORD26 /// SNORD27 /// SNORD28 /// SNORD29 /// SNORD31 / Fold change vs veh, SNHG1 /// SNORD22 /// SNORD25 /// SNORD26 /// SNORD27 /// SNORD28 /// SNORD29 /// SNORD31 / Fold change (Aza/veh), C12orf56 (ProbeSet 11735607_a_at) / Fold change (ACY-1035/veh), C12orf56 (ProbeSet 11735607_a_at) / Fold change (Aza/veh), FGFR1OP (ProbeSet 11751329_s_at) / Fold change (ACY-1035/veh), FGFR1OP (ProbeSet 11751329_s_at) / Fold change (Aza/veh), VPS36 (ProbeSet 11739960_a_at) / Fold change (ACY-1035/veh), VPS36 (ProbeSet 11739960_a_at) / RFU SYPL1 (11715823_x_at) / Fold change /veh SYPL1 (11715823_x_at) / RFU IGFBP7 (11715501_s_at) / Fold change /veh IGFBP7 (11715501_s_at) / RFU REEP3 (11722064_at) / Fold change /veh REEP3 (11722064_at) / RFU IGLL1 (11728026_x_at) / Fold change /veh IGLL1 (11728026_x_at): dose or concentration left out as unconfirmed
Conditions: ProbeSet 11728314_at; LIST B

For `Nc1ccc(-c2cccs2)cc1NC(=O)c1ccc2c(c1)cc(C1CC1)n2CCN1CCOCC1` [ACY-1035], the “RFU, ZNF148” value was 188.07 RFU.
